# pIC50: −log10 of the molar value.
# System: mast cells
# Assay: not given
# Conditions: at 10^−3 M; cited from earlier work
row,SMILES,inhibition of substance P-induced histamine release
1,"O=C([O-])c1cc(=O)c2c(OCC(O)COc3cccc4oc(C(=O)[O-])cc(=O)c34)cccc2o1.[Na+].[Na+] [DSCG, disodium cromoglycate]",41%

# System: rat mast cells
# Assay: not given
# Conditions: oral application, dose of 200 mg/kg; cited from earlier work
row,SMILES,inhibition of antigen-induced destruction of rat mast cells
1,"O=C(/C=C/c1ccc(O)cc1)Nc1ccccc1C(=O)O [substance 10, N-(4-hydroxycinnamoyl)anthranilic Acid]",36.7%

# System: Mast cells from the peritoneal tissue of rats
# Assay: Inhibition of substance P-induced release of histamine from mast cells
# Assay type: cell-based, rat
# Conditions: Rattus norvegicus, Mast cell, 2 min; 0.5 ppm synthetic substance; substance P 10 μM, 37° C.; based on histamine content of cells stimulated with substance P
# Procedure: Stock solutions: avenanthramides 2 to 19 (structural formulae: see Table 1a) and dianthramides 20-29 (structural formulae: see Table 1b); concentration: 1% in ethanol; storage before use at 4° C.) Mast cells from the peritoneal tissue of rats were isolated by centrifuging on metrizamide and stimulated with substance P (10 μM). […] The synthetically prepared avenanthramides and dianthramides of the Formulae 2 to 29 (cf. […] Test system: The final test solutions were incubated for 2 minutes in the presence of substance P and of the reference substance (CaCl2) or of the particular sample to be tested (incubation temperature: 37° C.). Cells that had been incubated in the absence of substance P and reference or sample substance served as blank. The reaction solutions were first freed from cell constituents by centrifuging. The histamine present in the supernatant liquor was then converted to a derivative with OPT and the fluorescence of the solutions was determined photometrically (fluorometer Cytofluor 2350). […] The values for the various avenanthramides are given in Table 2 as % inhibition based on the histamine content of cells stimulated with substance P without the addition of inhibitors.
row,SMILES,inhibition at 0.5 µg/mL
1,O=C(/C=C/c1ccc(O)c(O)c1)Nc1ccccc1C(=O)O [compound 2],7%
2,O=C(/C=C/c1ccc(O)c(O)c1)Nc1ccc(O)cc1C(=O)O [compound 3],11%
3,COc1cc(/C=C/C(=O)Nc2ccc(O)cc2C(=O)O)ccc1O [compound 4],3%
4,O=C(CCc1ccc(O)cc1)Nc1ccc(O)cc1C(=O)O [compound 5],7%
5,O=C(/C=C/c1ccc(O)cc1)Nc1cc(O)ccc1C(=O)O [compound 6],-9%
6,O=C(/C=C/c1ccc(O)cc1)Nc1ccc(O)cc1C(=O)O [compound 7],27%
7,O=C(CCc1ccc(O)cc1)Nc1ccccc1C(=O)O [compound 8],13%
8,COc1cc(/C=C/C(=O)Nc2ccccc2C(=O)O)ccc1O [compound 9],11%
9,O=C(/C=C/c1ccc(O)cc1)Nc1ccccc1C(=O)O [compound 10],-10%
10,COc1ccc(CCC(=O)Nc2ccc(O)cc2C(=O)O)cc1OC [compound 11],-6%
11,O=C(/C=C/c1ccccc1)Nc1ccc(O)cc1C(=O)O [compound 12],-5%
12,COc1ccc(/C=C/C(=O)Nc2ccc(O)cc2C(=O)O)cc1OC [compound 13],17%
13,COc1ccc(/C=C/C(=O)Nc2ccccc2C(=O)O)cc1 [compound 14],21%
14,COc1ccc(/C=C/C(=O)Nc2ccccc2C(=O)O)cc1OC [compound 15],23%
15,COC(=O)c1ccccc1NC(=O)CCc1ccc(OC)c(OC)c1 [compound 16],26%
16,O=C(/C=C/c1ccccc1)Nc1ccccc1C(=O)O [compound 17],4%
17,COC(=O)c1ccccc1NC(=O)/C=C/c1ccc(OC)c(OC)c1 [compound 18],5%
18,COc1ccc(CCC(=O)Nc2ccccc2C(=O)O)cc1OC [compound 19],-15%
19,"O=C(Nc1ccccc1C(=O)O)c1ccc(O)c(O)c1 [compound 20, 2-[(3,4-dihydroxybenzoyl)amino]benzoic acid]",14%
20,O=C(Nc1ccc(O)cc1C(=O)O)c1ccc(O)cc1 [compound 21],-15%
21,"O=C(Nc1ccccc1C(=O)O)c1cc(O)c(O)c(O)c1 [compound 22, 2-[(3,4,5-trihydroxy-benzoyl)amino]benzoic acid]",39%
22,"COc1ccc(C(=O)Nc2ccccc2C(=O)O)cc1O [compound 23, 2-[(3-hydroxy-4-methoxybenzoyl)amino]-benzoic acid]",9%
23,"O=C(Nc1ccccc1C(=O)O)c1ccc(O)cc1 [compound 24, 2-[(4-hydroxy-benzoyl)amino]benzoic acid]",7%
24,"COc1cc(C(=O)Nc2ccccc2C(=O)O)ccc1O [compound 25, 2-[(4-hydroxy-3-methoxybenzoyl)amino]-benzoic acid]",8%
25,O=C(Nc1ccccc1C(=O)O)c1ccc(O)cc1O [compound 26],-13%
26,O=C(Nc1ccccc1C(=O)O)c1ccccc1 [compound 27],27%
27,"O=C(Nc1ccccc1C(=O)O)c1cccc(O)c1 [compound 28, 2-[(3-hydroxy-benzoyl)amino]benzoic acid]",12%
28,O=C(Nc1ccccc1C(=O)O)c1ccccc1O [compound 29],-1%

# Same assay, conditions: Rattus norvegicus, Mast cell, 2 min; 5 ppm synthetic substance; substance P 10 μM, 37° C.; based on histamine content of cells stimulated with substance P
row,SMILES,inhibition at 5 µg/mL
1,O=C(/C=C/c1ccc(O)c(O)c1)Nc1ccccc1C(=O)O [compound 2],80%
2,O=C(/C=C/c1ccc(O)c(O)c1)Nc1ccc(O)cc1C(=O)O [compound 3],62%
3,COc1cc(/C=C/C(=O)Nc2ccc(O)cc2C(=O)O)ccc1O [compound 4],49%
4,O=C(CCc1ccc(O)cc1)Nc1ccc(O)cc1C(=O)O [compound 5],17%
5,O=C(/C=C/c1ccc(O)cc1)Nc1cc(O)ccc1C(=O)O [compound 6],1%
6,O=C(/C=C/c1ccc(O)cc1)Nc1ccc(O)cc1C(=O)O [compound 7],26%
7,O=C(CCc1ccc(O)cc1)Nc1ccccc1C(=O)O [compound 8],26%
8,COc1cc(/C=C/C(=O)Nc2ccccc2C(=O)O)ccc1O [compound 9],19%
9,O=C(/C=C/c1ccc(O)cc1)Nc1ccccc1C(=O)O [compound 10],8%
10,COc1ccc(CCC(=O)Nc2ccc(O)cc2C(=O)O)cc1OC [compound 11],11%
11,O=C(/C=C/c1ccccc1)Nc1ccc(O)cc1C(=O)O [compound 12],0%
12,COc1ccc(/C=C/C(=O)Nc2ccc(O)cc2C(=O)O)cc1OC [compound 13],2%
13,COc1ccc(/C=C/C(=O)Nc2ccccc2C(=O)O)cc1 [compound 14],30%
14,COc1ccc(/C=C/C(=O)Nc2ccccc2C(=O)O)cc1OC [compound 15],22%
15,COC(=O)c1ccccc1NC(=O)CCc1ccc(OC)c(OC)c1 [compound 16],25%
16,O=C(/C=C/c1ccccc1)Nc1ccccc1C(=O)O [compound 17],7%
17,COC(=O)c1ccccc1NC(=O)/C=C/c1ccc(OC)c(OC)c1 [compound 18],-3%
18,COc1ccc(CCC(=O)Nc2ccccc2C(=O)O)cc1OC [compound 19],-22%
19,"O=C(Nc1ccccc1C(=O)O)c1ccc(O)c(O)c1 [compound 20, 2-[(3,4-dihydroxybenzoyl)amino]benzoic acid]",76%
20,O=C(Nc1ccc(O)cc1C(=O)O)c1ccc(O)cc1 [compound 21],48%
21,"O=C(Nc1ccccc1C(=O)O)c1cc(O)c(O)c(O)c1 [compound 22, 2-[(3,4,5-trihydroxy-benzoyl)amino]benzoic acid]",72%
22,"COc1ccc(C(=O)Nc2ccccc2C(=O)O)cc1O [compound 23, 2-[(3-hydroxy-4-methoxybenzoyl)amino]-benzoic acid]",29%
23,"O=C(Nc1ccccc1C(=O)O)c1ccc(O)cc1 [compound 24, 2-[(4-hydroxy-benzoyl)amino]benzoic acid]",19%
24,"COc1cc(C(=O)Nc2ccccc2C(=O)O)ccc1O [compound 25, 2-[(4-hydroxy-3-methoxybenzoyl)amino]-benzoic acid]",42%
25,O=C(Nc1ccccc1C(=O)O)c1ccc(O)cc1O [compound 26],22%
26,O=C(Nc1ccccc1C(=O)O)c1ccccc1 [compound 27],28%
27,"O=C(Nc1ccccc1C(=O)O)c1cccc(O)c1 [compound 28, 2-[(3-hydroxy-benzoyl)amino]benzoic acid]",25%
28,O=C(Nc1ccccc1C(=O)O)c1ccccc1O [compound 29],15%

# Same assay, conditions: Rattus norvegicus, Mast cell, 2 min; 50 ppm synthetic substance; substance P 10 μM, 37° C.; based on histamine content of cells stimulated with substance P
row,SMILES,inhibition at 50 µg/mL
1,O=C(/C=C/c1ccc(O)c(O)c1)Nc1ccccc1C(=O)O [compound 2],108%
2,O=C(/C=C/c1ccc(O)c(O)c1)Nc1ccc(O)cc1C(=O)O [compound 3],106%
3,COc1cc(/C=C/C(=O)Nc2ccc(O)cc2C(=O)O)ccc1O [compound 4],59%
4,O=C(CCc1ccc(O)cc1)Nc1ccc(O)cc1C(=O)O [compound 5],47%
5,O=C(/C=C/c1ccc(O)cc1)Nc1cc(O)ccc1C(=O)O [compound 6],41%
6,O=C(/C=C/c1ccc(O)cc1)Nc1ccc(O)cc1C(=O)O [compound 7],40%
7,O=C(CCc1ccc(O)cc1)Nc1ccccc1C(=O)O [compound 8],40%
8,COc1cc(/C=C/C(=O)Nc2ccccc2C(=O)O)ccc1O [compound 9],39%
9,O=C(/C=C/c1ccc(O)cc1)Nc1ccccc1C(=O)O [compound 10],37%
10,COc1ccc(CCC(=O)Nc2ccc(O)cc2C(=O)O)cc1OC [compound 11],36%
11,O=C(/C=C/c1ccccc1)Nc1ccc(O)cc1C(=O)O [compound 12],34%
12,COc1ccc(/C=C/C(=O)Nc2ccc(O)cc2C(=O)O)cc1OC [compound 13],30%
13,COc1ccc(/C=C/C(=O)Nc2ccccc2C(=O)O)cc1 [compound 14],24%
14,COC(=O)c1ccccc1NC(=O)CCc1ccc(OC)c(OC)c1 [compound 16],7%
15,O=C(/C=C/c1ccccc1)Nc1ccccc1C(=O)O [compound 17],6%
16,COC(=O)c1ccccc1NC(=O)/C=C/c1ccc(OC)c(OC)c1 [compound 18],6%
17,COc1ccc(CCC(=O)Nc2ccccc2C(=O)O)cc1OC [compound 19],-4%
18,"O=C(Nc1ccccc1C(=O)O)c1ccc(O)c(O)c1 [compound 20, 2-[(3,4-dihydroxybenzoyl)amino]benzoic acid]",110%
19,O=C(Nc1ccc(O)cc1C(=O)O)c1ccc(O)cc1 [compound 21],76%
20,"O=C(Nc1ccccc1C(=O)O)c1cc(O)c(O)c(O)c1 [compound 22, 2-[(3,4,5-trihydroxy-benzoyl)amino]benzoic acid]",71%
21,"COc1ccc(C(=O)Nc2ccccc2C(=O)O)cc1O [compound 23, 2-[(3-hydroxy-4-methoxybenzoyl)amino]-benzoic acid]",69%
22,"O=C(Nc1ccccc1C(=O)O)c1ccc(O)cc1 [compound 24, 2-[(4-hydroxy-benzoyl)amino]benzoic acid]",55%
23,"COc1cc(C(=O)Nc2ccccc2C(=O)O)ccc1O [compound 25, 2-[(4-hydroxy-3-methoxybenzoyl)amino]-benzoic acid]",51%
24,O=C(Nc1ccccc1C(=O)O)c1ccc(O)cc1O [compound 26],48%
25,O=C(Nc1ccccc1C(=O)O)c1ccccc1 [compound 27],39%
26,"O=C(Nc1ccccc1C(=O)O)c1cccc(O)c1 [compound 28, 2-[(3-hydroxy-benzoyl)amino]benzoic acid]",35%
27,O=C(Nc1ccccc1C(=O)O)c1ccccc1O [compound 29],23%

# Same assay, conditions: positive control, test series 3.1 (synthetic anthranilic acid amides); read-out: concentration for 50% inhibition of substance P-induced release of histamine
row,SMILES,pIC50
1,"[Ca+2].[Cl-].[Cl-] [calcium chloride, reference compound]",3.19

# Same assay, conditions: positive control, test series 3.2 (oat fraction vs reconstituted product); read-out: concentration for 50% inhibition of substance P-induced release of histamine
row,SMILES,pIC50
1,"[Ca+2].[Cl-].[Cl-] [calcium chloride, reference compound]",3.36

# Same assay, conditions: structure/activity considerations, Tables 1a/1b
row,SMILES,"activity in inhibiting substance P-induced histamine release, in words"
1,O=C(/C=C/c1ccc(O)c(O)c1)Nc1ccccc1C(=O)O [compound 2],complete inhibition of the histamine release
2,O=C(/C=C/c1ccc(O)c(O)c1)Nc1ccc(O)cc1C(=O)O [compound 3],complete inhibition of the histamine release
3,"O=C(Nc1ccccc1C(=O)O)c1ccc(O)c(O)c1 [compound 20, 2-[(3,4-dihydroxybenzoyl)amino]benzoic acid]",greatest activity

# Reference: patent US8409552B2, “Anthranillic acid amides and derivatives thereof as cosmetic and pharmaceutical active compounds” (Symrise AG, priority 2002, dated 2013)
